Four molecules from ChEMBL document CHEMBL1697781, “Assessment of the health effects of chemicals in humans: II. Construction of an adverse effects database for QSAR modeling” (Curr Drug Discov Technol, 2004) can be followed below.
Wherever GGT Increase - Index Value is given: reference of the scale not given here.
Wherever LDH Increase - Index Value is given: reference of the scale not given here.

The first data set has as its system Hepatotoxicity. As to the kind of experiment: FDA HLAED, serum glutamic pyruvic transaminase (SGPT) increase. The note with it: human.
As to `CCCCCCC(=O)O[C@H]1CC[C@H]2[C@@H]3CCC4=CC(=O)CC[C@]4(C)[C@H]3CC[C@]12C` [TESTOSTERONE ENANTHATE], the “SGPT Increase - Activity Score” value is “Inactive”, the “SGPT Increase - Index Value” is recorded as 7.2 and the “SGPT Increase - Number of Reports” value is < 4.
Consider `CCCCCCCCCC(=O)CC(=O)O[C@H]1CC[C@H]2[C@@H]3CCC4=CC(=O)CC[C@]4(C)[C@H]3CC[C@]12C` [TESTOSTERONE KETOLAURATE], for which the “SGPT Increase - Activity Score” value is “Inactive”, the “SGPT Increase - Index Value” was determined as 7.2 and the “SGPT Increase - Number of Reports” value is reported as < 4.
In the same order, the values of `C[C@]12CC[C@H]3[C@@H](CCC4=CC(=O)CC[C@@]43C)[C@@H]1CC[C@@H]2OC(=O)Cc1ccccc1` [TESTOSTERONE PHENYLACETATE] are “Inactive”, 7.2 and < 4.
As for `CCC(=O)O[C@H]1CC[C@H]2[C@@H]3CCC4=CC(=O)CC[C@]4(C)[C@H]3CC[C@]12C` [TESTOSTERONE PROPIONATE], the “SGPT Increase - Activity Score” value is “Inactive”, the “SGPT Increase - Index Value” stood at 7.2 and the “SGPT Increase - Number of Reports” value is given as < 4.

In the next data set the test system is Hepatotoxicity. The data set is described as follows: FDA HLAED, serum glutamic oxaloacetic transaminase (SGOT) increase. The note with it: human.
Regarding `CCCCCCC(=O)O[C@H]1CC[C@H]2[C@@H]3CCC4=CC(=O)CC[C@]4(C)[C@H]3CC[C@]12C` [TESTOSTERONE ENANTHATE], the “SGOT Increase - Activity Score” value was “Inactive”, the “SGOT Increase - Index Value” stood at 4.8 and the “SGOT Increase - Number of Reports” value was < 4.
With `CCCCCCCCCC(=O)CC(=O)O[C@H]1CC[C@H]2[C@@H]3CCC4=CC(=O)CC[C@]4(C)[C@H]3CC[C@]12C` [TESTOSTERONE KETOLAURATE], the “SGOT Increase - Activity Score” value is reported as “Inactive”, the “SGOT Increase - Index Value” came out at 4.8 and the “SGOT Increase - Number of Reports” value is listed as < 4.
As for `C[C@]12CC[C@H]3[C@@H](CCC4=CC(=O)CC[C@@]43C)[C@@H]1CC[C@@H]2OC(=O)Cc1ccccc1` [TESTOSTERONE PHENYLACETATE], the “SGOT Increase - Activity Score” value is given as “Inactive”, the “SGOT Increase - Index Value” turned out to be 4.8 and the “SGOT Increase - Number of Reports” value is listed as < 4.
Consider `CCC(=O)O[C@H]1CC[C@H]2[C@@H]3CCC4=CC(=O)CC[C@]4(C)[C@H]3CC[C@]12C` [TESTOSTERONE PROPIONATE], for which the “SGOT Increase - Activity Score” value is listed as “Inactive”, the “SGOT Increase - Index Value” is listed as 4.8 and the “SGOT Increase - Number of Reports” value is recorded as < 4.

Another data set deals with Hepatotoxicity. As to the kind of experiment: FDA HLAED, lactate dehydrogenase (LDH) increase. The note with it: human.
Turning to `CCCCCCC(=O)O[C@H]1CC[C@H]2[C@@H]3CCC4=CC(=O)CC[C@]4(C)[C@H]3CC[C@]12C` [TESTOSTERONE ENANTHATE], the “LDH Increase - Activity Score” value is reported as “Inactive”, the “LDH Increase - Index Value” is 2.4 and the “LDH Increase - Number of Reports” value is < 4.
As for `CCCCCCCCCC(=O)CC(=O)O[C@H]1CC[C@H]2[C@@H]3CCC4=CC(=O)CC[C@]4(C)[C@H]3CC[C@]12C` [TESTOSTERONE KETOLAURATE], the “LDH Increase - Activity Score” value is given as “Inactive”, the “LDH Increase - Index Value” turned out to be 2.4 and the “LDH Increase - Number of Reports” value is given as < 4.
Consider `C[C@]12CC[C@H]3[C@@H](CCC4=CC(=O)CC[C@@]43C)[C@@H]1CC[C@@H]2OC(=O)Cc1ccccc1` [TESTOSTERONE PHENYLACETATE], for which the “LDH Increase - Activity Score” value was “Inactive”, the “LDH Increase - Index Value” is 2.4 and the “LDH Increase - Number of Reports” value is < 4.
As to `CCC(=O)O[C@H]1CC[C@H]2[C@@H]3CCC4=CC(=O)CC[C@]4(C)[C@H]3CC[C@]12C` [TESTOSTERONE PROPIONATE], the “LDH Increase - Activity Score” value is “Inactive”, the “LDH Increase - Index Value” is recorded as 2.4 and the “LDH Increase - Number of Reports” value is on record as < 4.

The subject of another data set is Hepatotoxicity. As to the kind of experiment: FDA HLAED, liver enzyme composite activity. The note with it: human.
As for `CCCCCCC(=O)O[C@H]1CC[C@H]2[C@@H]3CCC4=CC(=O)CC[C@]4(C)[C@H]3CC[C@]12C` [TESTOSTERONE ENANTHATE], the “Composite Activity - Active” value worked out at 0, the “Composite Activity - Marginal” value stood at 0 and the “Composite Activity - Score” value is on record as “Inactive”.
Turning to `CCCCCCCCCC(=O)CC(=O)O[C@H]1CC[C@H]2[C@@H]3CCC4=CC(=O)CC[C@]4(C)[C@H]3CC[C@]12C` [TESTOSTERONE KETOLAURATE], the “Composite Activity - Active” value stood at 0, the “Composite Activity - Marginal” value amounted to 0 and the “Composite Activity - Score” value is “Inactive”.
Turning to `C[C@]12CC[C@H]3[C@@H](CCC4=CC(=O)CC[C@@]43C)[C@@H]1CC[C@@H]2OC(=O)Cc1ccccc1` [TESTOSTERONE PHENYLACETATE], the “Composite Activity - Active” value amounted to 0, the “Composite Activity - Marginal” value is on record as 0 and the “Composite Activity - Score” value was “Inactive”.
Consider `CCC(=O)O[C@H]1CC[C@H]2[C@@H]3CCC4=CC(=O)CC[C@]4(C)[C@H]3CC[C@]12C` [TESTOSTERONE PROPIONATE], for which the “Composite Activity - Active” value is reported as 0, the “Composite Activity - Marginal” value was 0 and the “Composite Activity - Score” value was “Inactive”.

Another data set concerns Hepatotoxicity. As to the kind of experiment: FDA HLAED, gamma-glutamyl transferase (GGT) increase. As to conditions: human.
Consider `CCCCCCC(=O)O[C@H]1CC[C@H]2[C@@H]3CCC4=CC(=O)CC[C@]4(C)[C@H]3CC[C@]12C` [TESTOSTERONE ENANTHATE], for which the “GGT Increase - Activity Score” value is given as “Inactive”, the “GGT Increase - Index Value” is 4.8 and the “GGT Increase - Number of Reports” value was < 4.
In the same order, the values of `CCCCCCCCCC(=O)CC(=O)O[C@H]1CC[C@H]2[C@@H]3CCC4=CC(=O)CC[C@]4(C)[C@H]3CC[C@]12C` [TESTOSTERONE KETOLAURATE] are “Inactive”, 4.8 and < 4.
Take `C[C@]12CC[C@H]3[C@@H](CCC4=CC(=O)CC[C@@]43C)[C@@H]1CC[C@@H]2OC(=O)Cc1ccccc1` [TESTOSTERONE PHENYLACETATE]: the “GGT Increase - Activity Score” value is listed as “Inactive”, the “GGT Increase - Index Value” is listed as 4.8 and the “GGT Increase - Number of Reports” value is reported as < 4.
Regarding `CCC(=O)O[C@H]1CC[C@H]2[C@@H]3CCC4=CC(=O)CC[C@]4(C)[C@H]3CC[C@]12C` [TESTOSTERONE PROPIONATE], the “GGT Increase - Activity Score” value was “Inactive”, the “GGT Increase - Index Value” is given as 4.8 and the “GGT Increase - Number of Reports” value is given as < 4.

The next data set relates to Hepatotoxicity. As to the kind of experiment: FDA HLAED, alkaline phosphatase increase. The note with it: human.
For `CCCCCCC(=O)O[C@H]1CC[C@H]2[C@@H]3CCC4=CC(=O)CC[C@]4(C)[C@H]3CC[C@]12C` [TESTOSTERONE ENANTHATE], the “Alkaline Phosphatase Increase - Activity Score” value is on record as “Inactive”, the “Alkaline Phosphatase Increase - Index Value” came to 0 and the “Alkaline Phosphatase Increase - Number of Reports” value is recorded as < 4.
For `CCCCCCCCCC(=O)CC(=O)O[C@H]1CC[C@H]2[C@@H]3CCC4=CC(=O)CC[C@]4(C)[C@H]3CC[C@]12C` [TESTOSTERONE KETOLAURATE], the “Alkaline Phosphatase Increase - Activity Score” value is “Inactive”, the “Alkaline Phosphatase Increase - Index Value” was determined as 0 and the “Alkaline Phosphatase Increase - Number of Reports” value is reported as < 4.
On to `C[C@]12CC[C@H]3[C@@H](CCC4=CC(=O)CC[C@@]43C)[C@@H]1CC[C@@H]2OC(=O)Cc1ccccc1` [TESTOSTERONE PHENYLACETATE], for which the “Alkaline Phosphatase Increase - Activity Score” value is on record as “Inactive”, the “Alkaline Phosphatase Increase - Index Value” worked out at 0 and the “Alkaline Phosphatase Increase - Number of Reports” value is < 4.
Taken in the same sequence, the figures for `CCC(=O)O[C@H]1CC[C@H]2[C@@H]3CCC4=CC(=O)CC[C@]4(C)[C@H]3CC[C@]12C` [TESTOSTERONE PROPIONATE] were “Inactive”, 0 and < 4.
